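Tested at 5 concentrations; 48 h exposure; 96-well plates; endpoints linearly interpolated, else capped at highest concentration. GI50 = concentration required for 50% inhibition of growth. TGI denotes the concentration required for complete inhibition of growth.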
Legend:
Assay in all cases: growth of human tumour cells (NCI), 48 h
[1] = test system: A498 renal
[2] = test system: A549 NSCLC
[3] = test system: ACHN renal
[4] = test system: BT-549 breast
[5] = test system: CCRF-CEM leukemia
[6] = test system: COLO 205 colon
[7] = test system: DU-145 prostate
[8] = test system: EKVX NSCLC
[9] = test system: HCC-2998 colon
[10] = test system: HCT-116 colon
[11] = test system: HCT-15 colon
[12] = test system: HL-60(TB) leukemia
[13] = test system: HOP-62 NSCLC
[14] = test system: HOP-92 NSCLC
[15] = test system: HS 578T breast
[16] = test system: HT29 colon
[17] = test system: IGROV1 ovarian
[18] = test system: K-562 leukemia
[19] = test system: KM12 colon
[20] = test system: LOX IMVI melanoma
[21] = test system: M14 melanoma
[22] = test system: MALME-3M melanoma
[23] = test system: MCF7 breast
[24] = test system: MDA-MB-231 breast
[25] = test system: MDA-MB-435
[26] = test system: MOLT-4 leukemia
[27] = test system: NCI-H226 lung
[28] = test system: NCI-H23 lung
[29] = test system: NCI-H460 lung
[30] = test system: NCI-H522 lung
[31] = test system: NCI/ADR-RES ovarian
[32] = test system: OVCAR-3 ovarian
[33] = test system: OVCAR-4 ovarian
[34] = test system: OVCAR-5 ovarian
[35] = test system: PC-3 prostate
[36] = test system: RPMI-8226 leukemia
[37] = test system: RXF 393 renal
[38] = test system: SF-268 CNS
[39] = test system: SF-295 CNS
[40] = test system: SF-539 CNS
[41] = test system: SK-MEL-2 melanoma
[42] = test system: SK-MEL-28 melanoma
[43] = test system: SK-MEL-5 melanoma
[44] = test system: SK-OV-3 ovarian
[45] = test system: SN12C renal
[46] = test system: SNB-19 CNS
[47] = test system: SNB-75 CNS
[48] = test system: SR leukemia
[49] = test system: SW-620 colon
[50] = test system: T-47D breast
[51] = test system: TK-10 renal
[52] = test system: U251 CNS
[53] = test system: UACC-257 melanoma
[54] = test system: UACC-62 melanoma
[55] = test system: UO-31 renal

In the case of `CCOc1cc(/C=C/C(=O)C(C(=O)/C=C/c2ccc(OC(=O)CNc3nc4ccccc4[nH]3)c(OCC)c2)C(=O)CNc2nc3ccccc3[nH]2)ccc1OC(=O)CNc1nc2ccccc2[nH]1`, the GI50 [1] is reported as 1.68 µM, the TGI [1] is reported as 3.87 µM and the GI50 [2] is reported as 3.55 µM. The TGI [2] was 27 µM, the GI50 [3] was 2.31 µM and the TGI [3] was 6.68 µM. The GI50 [4] was 1.45 µM, the TGI [4] was 3.13 µM and the GI50 [5] was 1.14 µM. The TGI [5] was 3.16 µM, the GI50 [6] was 2.08 µM and the TGI [6] was 4.61 µM. For the same molecule, the GI50 [7] was 1.7 µM, the TGI [7] was 3.72 µM and the GI50 [8] was 1.99 µM. For the same molecule, the TGI [8] was 5.37 µM, the GI50 [9] was 1.69 µM and the TGI [9] was 3.22 µM. For the same molecule, the GI50 [10] was 1.63 µM, the TGI [10] was 4.84 µM and the GI50 [11] was 2.53 µM. The TGI [11] was 7.87 µM, the GI50 [12] was 1.62 µM and the TGI [12] was 3.61 µM. The GI50 [13] was 4.23 µM, the TGI [13] was > 100 µM and the GI50 [14] was 1.4 µM. For the same molecule, the TGI [14] was 4.26 µM, the GI50 [15] was 1.83 µM and the TGI [15] was 5.18 µM. The GI50 [16] was 1.29 µM, the TGI [16] was 2.56 µM and the GI50 [17] was 2.93 µM. For the same molecule, the TGI [17] was > 100 µM, the GI50 [18] was 1.44 µM and the TGI [18] was 2.75 µM. The GI50 [19] was 1.62 µM, the TGI [19] was 3.26 µM and the GI50 [20] was 1.66 µM. The TGI [20] was 3.02 µM, the GI50 [21] was 2.14 µM and the TGI [21] was 6.76 µM. For the same molecule, the GI50 [22] was 1.75 µM, the TGI [22] was 5.93 µM and the GI50 [23] was 1.06 µM. The TGI [23] was 3.56 µM, the GI50 [24] was 2.39 µM and the TGI [24] was 7.29 µM. The GI50 [25] was 2.07 µM, the TGI [25] was 6.92 µM and the GI50 [26] was 1.47 µM. The TGI [26] was 3.04 µM, the GI50 [27] was 2.07 µM and the TGI [27] was 5.67 µM. For the same molecule, the GI50 [28] was 2.5 µM, the TGI [28] was 9.71 µM and the GI50 [29] was 1.92 µM. For the same molecule, the TGI [29] was 4.44 µM, the GI50 [30] was 3.29 µM and the TGI [30] was 12.5 µM. The GI50 [31] was 3.39 µM, the TGI [31] was 74 µM and the GI50 [32] was 2.81 µM. The TGI [32] was 12.3 µM, the GI50 [33] was 3.39 µM and the TGI [33] was 22.7 µM. For the same molecule, the GI50 [34] was 2.09 µM, the TGI [34] was 5.22 µM and the GI50 [35] was 2.12 µM. The TGI [35] was 6.23 µM, the GI50 [36] was 0.754 µM and the TGI [36] was 2.51 µM. The GI50 [37] was 4.08 µM, the TGI [37] was > 100 µM and the GI50 [38] was 2 µM. For the same molecule, the TGI [38] was 6.79 µM, the GI50 [39] was 7.86 µM and the TGI [39] was 22.7 µM. For the same molecule, the GI50 [40] was 1.61 µM, the TGI [40] was 3.1 µM and the GI50 [41] was 3.26 µM. It also gave a TGI [41] of 28.8 µM, a GI50 [42] of 1.77 µM and a TGI [42] of 3.56 µM. The GI50 [43] was 1.6 µM, the TGI [43] was 3.02 µM and the GI50 [44] was 3.17 µM. For the same molecule, the TGI [44] was 11.9 µM, the GI50 [45] was 2.21 µM and the TGI [45] was 5.61 µM. The GI50 [46] was 2.96 µM, the TGI [46] was 11.7 µM and the GI50 [47] was 3.73 µM. The TGI [47] was 27.9 µM, the GI50 [48] was 0.788 µM and the TGI [48] was 2.53 µM. The GI50 [49] was 1.6 µM, the TGI [49] was 2.95 µM and the GI50 [50] was 2.86 µM. The TGI [50] was 14.9 µM, the GI50 [51] was 3.24 µM and the TGI [51] was 14.2 µM. It also gave a GI50 [52] of 1.94 µM, a TGI [52] of 4.34 µM and a GI50 [53] of 2.85 µM. It also gave a TGI [53] of 8.73 µM, a GI50 [54] of 1.9 µM and a TGI [54] of 3.98 µM. The GI50 [55] was 3.98 µM and the TGI [55] was > 100 µM.
